Experimental data: patent US20140323418A1, “SELECTIVE KINASE INHIBITORS” (PORTOLA PHARMACEUTICALS, INC., priority 2011, published 2014)

Biological target: T1, full length active recombinant SYK enzyme (Homo sapiens, UniProt P43405)
T1 construct: full length active recombinant SYK enzyme (Millipore, Calif.); purchased Millipore
Test: Inhibition of Syk tyrosine phosphorylation activity (LANCE TR-FRET kinase assay)
Format: biochemical
Settings: 1 nM SYK, 550 nM substrate, 100 μM ATP, 1 hour room temperature

SMILES	IC50
NC(=O)c1cnc(N[C@@H]2CCCC[C@@H]2N)nc1Nc1ccc2cccnc2c1 [Example 75, 2-((1R,2S)-2-aminocyclohexylamino)-4-(quinolin-7-ylamino)pyrimidine-5-carboxamide]	10 to 100 nM
Cn1ccc2c(Nc3nc(N[C@@H]4CCNC4)ncc3C(N)=O)cccc21 [Example 212, (R)-4-((1-methyl-1H-indol-4-yl)amino)-2-(pyrrolidin-3-ylamino)pyrimidine-5-carboxamide]	10 to 100 nM
NC(=O)c1cnc(N[C@H]2CCCNC2)nc1Nc1cnc2ccccc2c1 [Example 215, (S)-2-(piperidin-3-ylamino)-4-(quinolin-3-ylamino)pyrimidine-5-carboxamide]	100 to 1000 nM
Cc1cccc(Nc2nc(N[C@@H]3CC[C@@H](C(=O)N4CC(F)(F)C4)C[C@@H]3N)ncc2C(N)=O)c1 (racemic) [Example 192, 2-((1R,2S,4R)-2-amino-4-(3,3-difluoroazetidine-1-carbonyl)cyclohexylamino)-4-(m-tolylamino)pyrimidine-5-carboxamide]	10 to 100 nM
[N-]=[N+]=N[C@H]1CCCC[C@H]1Nc1ncc(C(N)=O)c(Nc2cccc(-n3nccn3)c2)n1 [Example 8, 4-(3-(2H-1,2,3-triazol-2-yl)phenylamino)-2-((1R,2S)-2-azidocyclohexylamino)pyrimidine-5-carboxamide]	100 to 1000 nM
Cn1ccc2c(Nc3nc(NC[C@@H](N)CC(F)F)ncc3C(N)=O)ccc(F)c21 [Example 86, (S)-2-(2-amino-4,4-difluorobutylamino)-4-(7-fluoro-1-methyl-1H-indol-4-ylamino)pyrimidine-5-carboxamide]	10 to 100 nM
NC(=O)c1cnc(N[C@H]2CN[C@H](CO)C2)nc1Nc1cccc(-n2nccn2)c1 [Example 225]	100 to 1000 nM
CCn1ccc2c(Nc3nc(NC(C)C)ncc3C(N)=O)cccc21 [Example 115, 4-(1-ethyl-1H-indol-4-ylamino)-2-(isopropylamino)pyrimidine-5-carboxamide]	100 to 1000 nM
NC(=O)c1cnc(NC2CCCc3cccnc32)nc1Nc1cccc(-n2nccn2)c1 (racemic) [Example 18, 4-(3-(2H-1,2,3-triazol-2-yl)phenylamino)-2-(5,6,7,8-tetrahydroquinolin-8-ylamino)pyrimidine-5-carboxamide]	100 to 1000 nM
NC(=O)c1cnc(N[C@@H]2CCCC(F)(F)[C@@H]2N)nc1Nc1csc2ncccc12 [Example 31, 2-(((1R,2R)-2-amino-3,3-difluorocyclohexyl)amino)-4-(thieno[2,3-b]pyridin-3-ylamino)pyrimidine-5-carboxamide]	10 to 100 nM
NC(=O)c1cnc(N[C@@H](C2CC2)C2(N)CC2)nc1Nc1cccc(-c2ncccn2)c1 [Example 134, (S)-2-(1-(1-aminocyclopropyl)(cyclopropyl)methylamino)-4-(3-(pyrimidin-2-yl)phenylamino)pyrimidine-5-carboxamide]	100 to 1000 nM
Cn1ccc2c(Nc3nc(N[C@@H]4CCCC(F)(F)[C@@H]4N)ncc3C(N)=O)cccc21 [Example 91, 2-((1R,2R)-2-amino-3,3-difluorocyclohexylamino)-4-(1-methyl-1H-indol-4-ylamino)pyrimidine-5-carboxamide]	10 to 100 nM
NC(=O)c1cnc(N[C@H](CC2CC2)C(N)=O)nc1Nc1cnc2ccccc2c1 [Example 74, (R)-2-(1-amino-3-cyclopropyl-1-oxopropan-2-ylamino)-4-(quinolin-3-ylamino)pyrimidine-5-carboxamide]	10 to 100 nM
Cn1ncc2c(Nc3nc(N[C@@H]4CCC[C@H](F)[C@@H]4N)ncc3C(N)=O)cccc21 [Example 240, 2-((1R,2R,3S)-2-amino-3-fluorocyclohexylamino)-4-(1-methyl-1H-indazol-4-ylamino)pyrimidine-5-carboxamide]	10 to 100 nM
NC(=O)c1cnc(N[C@@H]2CCCC(F)(F)[C@@H]2N)nc1Nc1cccc(Cl)c1 [Example 28, 2-(((1R,2R)-2-amino-3,3-difluorocyclohexyl)amino)-4-((3-chlorophenyl)amino)pyrimidine-5-carboxamide]	10 to 100 nM
NC(=O)c1cnc(N[C@H]2CCCC(F)(F)[C@H]2N)nc1Nc1cccc(-n2nccn2)c1 [Example 19]	100 to 1000 nM
Cc1ccc(Nc2nc(NC[C@@H](N)CC(F)F)ncc2C(N)=O)cc1 [Example 83, (S)-4-(p-toluidino)-2-(2-amino-4,4-difluorobutylamino)pyrimidine-5-carboxamide]	100 to 1000 nM
NC(=O)c1cnc(N[C@@H]2CCCC[C@@H]2N)nc1Nc1cncc(F)c1 [Example 45]	10 to 100 nM
Cc1cccc(Nc2nc(N[C@H]3CC[C@@H](N)C3)ncc2C(N)=O)c1 [Example 118, 4-(m-toluidino)-2-((1S,3R)-3-aminocyclopentylamino)pyrimidine-5-carboxamide]	100 to 1000 nM
NC(=O)c1cnc(N[C@@H]2CCNC2)nc1Nc1ccc2ncccc2c1 [Example 214, (R)-2-(pyrrolidin-3-ylamino)-4-(quinolin-6-ylamino)pyrimidine-5-carboxamide]	10 to 100 nM
CC[C@@H](Nc1ncc(C(N)=O)c(Nc2cc(C)ns2)n1)C(N)=O [Example 65, (R)-2-((1-amino-1-oxobutan-2-yl)amino)-4-((3-methylisothiazol-5-yl)amino)pyrimidine-5-carboxamide]	10 to 100 nM
NC(=O)c1cnc(N[C@@H]2CCCC(F)(F)[C@@H]2N)nc1Nc1ccccc1 [Example 27, 2-(((1R,2R)-2-amino-3,3-difluorocyclohexyl)amino)-4-(phenylamino)pyrimidine-5-carboxamide]	100 to 1000 nM
CCOC(=O)[C@@H]1CC[C@@H](Nc2ncc(C(N)=O)c(Nc3cccc(C)c3)n2)[C@@H](N)C1 (racemic) [Example 188, (1R,3S,4R)-ethyl 3-amino-4-(5-carbamoyl-4-(m-tolylamino)pyrimidin-2-ylamino)cyclohexanecarboxylate]	10 to 100 nM

Second part, the compound after the results:

IC50	SMILES
10 to 100 nM	NC(=O)c1cnc(NCC2(N)CC2)nc1Nc1cccc(-n2cccn2)c1 [Example 106, 4-(3-(1H-pyrazol-1-yl)phenylamino)-2-((1-aminocyclopropyl)methylamino)pyrimidine-5-carboxamide]
1 to 10 nM	CCn1ccc2c(Nc3nc(NC[C@@H](N)CC(F)F)ncc3C(N)=O)cccc21 [Example 76, (S)-2-(2-amino-4,4-difluorobutylamino)-4-(1-ethyl-1H-indol-4-ylamino)pyrimidine-5-carboxamide]
1 to 10 nM	NC(=O)c1cnc(N[C@H](C2CC2)C2(N)CC2)nc1Nc1ccc2ncsc2c1 [Example 167, (R)-2-(1-(1-aminocyclopropyl)(cyclopropyl)methylamino)-4-(benzo[d]thiazol-6-ylamino)pyrimidine-5-carboxamide]
1 to 10 nM	Cc1cccc(Nc2nc(N[C@@H]3CC[C@@H](C(=O)N(C)C)C[C@@H]3N)ncc2C(N)=O)c1 (racemic) [Example 190, 2-((1R,2S,4R)-2-amino-4-(dimethylcarbamoyl)cyclohexylamino)-4-(m-tolylamino)pyrimidine-5-carboxamide]
1 to 10 nM	CC(C)[C@@H](Nc1ncc(C(N)=O)c(Nc2cccc(-n3nccn3)c2)n1)C1(N)CC1 [Example 138, (R)-4-(3-(2H-1,2,3-triazol-2-yl)phenylamino)-2-(1-(1-aminocyclopropyl)-2-methylpropylamino)pyrimidine-5-carboxamide]
1 to 10 nM	NC(=O)c1cnc(N[C@H](C2CC2)C2(N)CC2)nc1Nc1cccc(-c2ncccn2)c1 [Example 135, (R)-2-(1-(1-aminocyclopropyl)(cyclopropyl)methylamino)-4-(3-(pyrimidin-2-yl)phenylamino)pyrimidine-5-carboxamide]
1 to 10 nM	CCn1ccc2c(Nc3nc(N[C@@H](CN)C4CC4)ncc3C(N)=O)cccc21 [Example 88, (R)-2-(2-amino-1-cyclopropylethylamino)-4-(1-ethyl-1H-indol-4-ylamino)pyrimidine-5-carboxamide]
1 to 10 nM	CC(C)[C@@H](Nc1ncc(C(N)=O)c(Nc2cccc(F)c2)n1)C1(N)CC1 [Example 159, (R)-2-(1-(1-aminocyclopropyl)-2-methylpropylamino)-4-(3-fluorophenylamino)pyrimidine-5-carboxamide]
1 to 10 nM	NC(=O)c1cnc(N[C@@H]2CCCC[C@@H]2N)nc1Nc1cccc(-n2ncc(O)n2)c1 [Example 252, 2-(((1R,2S)-2-aminocyclohexyl)amino)-4-((3-(4-hydroxy-2H-1,2,3-triazol-2-yl)phenyl)amino)pyrimidine-5-carboxamide]
1 to 10 nM	NC(=O)c1cnc(N[C@@H]2CCNC2)nc1Nc1cccc(-n2nccn2)c1 [Example 221, (R)-4-(3-(2H-1,2,3-triazol-2-yl)phenyeamino)-2-(pyrrolidin-3-ylamino)pyrimidine-5-carboxamide]
1 to 10 nM	NC(=O)c1cnc(N[C@@H]2CCCC[C@@H]2N)nc1Nc1cc(-n2cccn2)cc(-n2cccn2)c1 [Example 249, 2-(((1R,2S)-2-aminocyclohexyl)amino)-4-((3,5-di(1H-pyrazol-1-yl)phenyl)amino)pyrimidine-5-carboxamide]
1 to 10 nM	NC(=O)c1cnc(N[C@H](C2CC2)C2(N)CC2)nc1Nc1cccc(-n2cncn2)c1 [Example 163, (R)-4-(3-(1H-1,2,4-triazol-1-yl)phenylamino)-2-(1-(1-aminocyclopropyl)(cyclopropyl)methylamino)pyrimidine-5-carboxamide]
1 to 10 nM	NC(=O)c1cnc(N[C@@H]2CCCC[C@@H]2N)nc1Nc1cnn2ccccc12 [Example 43, 2-(((1R,2S)-2-aminocyclohexyl)amino)-4-(pyrazolo[1,5-a]pyridin-3-ylamino)pyrimidine-5-carboxamide]
1 to 10 nM	CC[C@@H](Nc1ncc(C(N)=O)c(Nc2ccc(C)cc2)n1)C1(N)CC1 [Example 130, (R)-2-(1-(1-aminocyclopropyl)propylamino)-4-(p-tolylamino)pyrimidine-5-carboxamide]
